Here are results for 1 molecule from article PMC3266282, “Role of AMP-Activated Protein Kinase on Steroid Hormone Biosynthesis in Adrenal NCI-H295R Cells” (PLoS ONE, 2012).

Structures are written as SMILES.

The target in this experiment is T1, CYP17A1 (17α-hydroxylase/17,20 lyase) (Homo sapiens, UniProt P05093).
T1 construct: human recombinant CYP17A1 co-expressed with POR in yeast microsomes; with human P450 oxidoreductase (POR)
T1 sequence (P05093 1-508): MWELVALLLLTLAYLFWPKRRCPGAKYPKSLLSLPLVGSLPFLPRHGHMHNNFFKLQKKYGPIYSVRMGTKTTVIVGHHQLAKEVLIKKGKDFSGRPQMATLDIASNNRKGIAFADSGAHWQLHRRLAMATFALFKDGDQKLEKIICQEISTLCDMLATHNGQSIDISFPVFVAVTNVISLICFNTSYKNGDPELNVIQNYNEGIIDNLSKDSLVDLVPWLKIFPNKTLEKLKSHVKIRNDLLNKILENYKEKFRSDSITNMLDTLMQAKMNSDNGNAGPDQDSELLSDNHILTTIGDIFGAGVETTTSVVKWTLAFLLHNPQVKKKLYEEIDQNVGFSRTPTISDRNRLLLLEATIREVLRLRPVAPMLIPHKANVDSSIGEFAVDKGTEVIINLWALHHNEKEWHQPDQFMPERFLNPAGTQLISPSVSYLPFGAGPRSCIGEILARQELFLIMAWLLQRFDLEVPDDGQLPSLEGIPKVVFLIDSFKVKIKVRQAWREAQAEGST
T1 sequence (P16435 2-677 partner): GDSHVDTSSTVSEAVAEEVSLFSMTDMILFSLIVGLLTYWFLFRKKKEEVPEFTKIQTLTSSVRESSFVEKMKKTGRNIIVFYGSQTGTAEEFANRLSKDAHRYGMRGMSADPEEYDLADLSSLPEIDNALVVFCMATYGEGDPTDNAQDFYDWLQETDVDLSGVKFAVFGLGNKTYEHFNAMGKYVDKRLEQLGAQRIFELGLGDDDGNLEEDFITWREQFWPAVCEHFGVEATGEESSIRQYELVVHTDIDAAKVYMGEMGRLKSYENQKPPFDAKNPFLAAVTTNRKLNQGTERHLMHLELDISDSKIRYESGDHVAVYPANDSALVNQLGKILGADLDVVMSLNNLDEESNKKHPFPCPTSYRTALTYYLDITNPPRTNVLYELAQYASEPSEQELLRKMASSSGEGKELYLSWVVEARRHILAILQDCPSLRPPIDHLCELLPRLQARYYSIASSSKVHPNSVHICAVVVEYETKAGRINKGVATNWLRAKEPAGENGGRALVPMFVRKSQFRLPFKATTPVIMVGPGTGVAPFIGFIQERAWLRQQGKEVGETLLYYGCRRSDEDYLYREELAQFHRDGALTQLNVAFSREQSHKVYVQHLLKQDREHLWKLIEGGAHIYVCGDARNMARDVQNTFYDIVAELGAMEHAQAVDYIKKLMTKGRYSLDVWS
Description: […]α-hydroxylase activity in yeast microsomes with radiolabelled steroid substrate, TLC readout, dose-response. In kind it is biochemical.

`c1cc(-c2cnn3cc(-c4ccc(OCCN5CCCCC5)cc4)cnc23)ccn1` [compound C]: half-maximal inhibition (IC50) required 9.6 nM.
